Assay results published in patent US20250114345A1, “COMPOUNDS AND COMPOSITIONS AS CBP/P300 DEGRADERS AND USES THEREOF” (Oncopia Therapeutics, Inc. d/b/a/ SK Life Science Labs, priority 2023, published 2025).

What was measured:
p300 = target: T1, p300 (Homo sapiens, UniProt Q09472); assay: P300 degradation, HiBit technology in A549 P300 HiBit cells (2 h); format: cell-based; conditions: 2 hrs post treatment; for Dmax: A549, A549 P300 HiBit cells; for DC50: A549 P300 HiBit cells
T1 construct: host or cells: A549 P300 HiBit cells
T1 sequence (Q09472 whole entry): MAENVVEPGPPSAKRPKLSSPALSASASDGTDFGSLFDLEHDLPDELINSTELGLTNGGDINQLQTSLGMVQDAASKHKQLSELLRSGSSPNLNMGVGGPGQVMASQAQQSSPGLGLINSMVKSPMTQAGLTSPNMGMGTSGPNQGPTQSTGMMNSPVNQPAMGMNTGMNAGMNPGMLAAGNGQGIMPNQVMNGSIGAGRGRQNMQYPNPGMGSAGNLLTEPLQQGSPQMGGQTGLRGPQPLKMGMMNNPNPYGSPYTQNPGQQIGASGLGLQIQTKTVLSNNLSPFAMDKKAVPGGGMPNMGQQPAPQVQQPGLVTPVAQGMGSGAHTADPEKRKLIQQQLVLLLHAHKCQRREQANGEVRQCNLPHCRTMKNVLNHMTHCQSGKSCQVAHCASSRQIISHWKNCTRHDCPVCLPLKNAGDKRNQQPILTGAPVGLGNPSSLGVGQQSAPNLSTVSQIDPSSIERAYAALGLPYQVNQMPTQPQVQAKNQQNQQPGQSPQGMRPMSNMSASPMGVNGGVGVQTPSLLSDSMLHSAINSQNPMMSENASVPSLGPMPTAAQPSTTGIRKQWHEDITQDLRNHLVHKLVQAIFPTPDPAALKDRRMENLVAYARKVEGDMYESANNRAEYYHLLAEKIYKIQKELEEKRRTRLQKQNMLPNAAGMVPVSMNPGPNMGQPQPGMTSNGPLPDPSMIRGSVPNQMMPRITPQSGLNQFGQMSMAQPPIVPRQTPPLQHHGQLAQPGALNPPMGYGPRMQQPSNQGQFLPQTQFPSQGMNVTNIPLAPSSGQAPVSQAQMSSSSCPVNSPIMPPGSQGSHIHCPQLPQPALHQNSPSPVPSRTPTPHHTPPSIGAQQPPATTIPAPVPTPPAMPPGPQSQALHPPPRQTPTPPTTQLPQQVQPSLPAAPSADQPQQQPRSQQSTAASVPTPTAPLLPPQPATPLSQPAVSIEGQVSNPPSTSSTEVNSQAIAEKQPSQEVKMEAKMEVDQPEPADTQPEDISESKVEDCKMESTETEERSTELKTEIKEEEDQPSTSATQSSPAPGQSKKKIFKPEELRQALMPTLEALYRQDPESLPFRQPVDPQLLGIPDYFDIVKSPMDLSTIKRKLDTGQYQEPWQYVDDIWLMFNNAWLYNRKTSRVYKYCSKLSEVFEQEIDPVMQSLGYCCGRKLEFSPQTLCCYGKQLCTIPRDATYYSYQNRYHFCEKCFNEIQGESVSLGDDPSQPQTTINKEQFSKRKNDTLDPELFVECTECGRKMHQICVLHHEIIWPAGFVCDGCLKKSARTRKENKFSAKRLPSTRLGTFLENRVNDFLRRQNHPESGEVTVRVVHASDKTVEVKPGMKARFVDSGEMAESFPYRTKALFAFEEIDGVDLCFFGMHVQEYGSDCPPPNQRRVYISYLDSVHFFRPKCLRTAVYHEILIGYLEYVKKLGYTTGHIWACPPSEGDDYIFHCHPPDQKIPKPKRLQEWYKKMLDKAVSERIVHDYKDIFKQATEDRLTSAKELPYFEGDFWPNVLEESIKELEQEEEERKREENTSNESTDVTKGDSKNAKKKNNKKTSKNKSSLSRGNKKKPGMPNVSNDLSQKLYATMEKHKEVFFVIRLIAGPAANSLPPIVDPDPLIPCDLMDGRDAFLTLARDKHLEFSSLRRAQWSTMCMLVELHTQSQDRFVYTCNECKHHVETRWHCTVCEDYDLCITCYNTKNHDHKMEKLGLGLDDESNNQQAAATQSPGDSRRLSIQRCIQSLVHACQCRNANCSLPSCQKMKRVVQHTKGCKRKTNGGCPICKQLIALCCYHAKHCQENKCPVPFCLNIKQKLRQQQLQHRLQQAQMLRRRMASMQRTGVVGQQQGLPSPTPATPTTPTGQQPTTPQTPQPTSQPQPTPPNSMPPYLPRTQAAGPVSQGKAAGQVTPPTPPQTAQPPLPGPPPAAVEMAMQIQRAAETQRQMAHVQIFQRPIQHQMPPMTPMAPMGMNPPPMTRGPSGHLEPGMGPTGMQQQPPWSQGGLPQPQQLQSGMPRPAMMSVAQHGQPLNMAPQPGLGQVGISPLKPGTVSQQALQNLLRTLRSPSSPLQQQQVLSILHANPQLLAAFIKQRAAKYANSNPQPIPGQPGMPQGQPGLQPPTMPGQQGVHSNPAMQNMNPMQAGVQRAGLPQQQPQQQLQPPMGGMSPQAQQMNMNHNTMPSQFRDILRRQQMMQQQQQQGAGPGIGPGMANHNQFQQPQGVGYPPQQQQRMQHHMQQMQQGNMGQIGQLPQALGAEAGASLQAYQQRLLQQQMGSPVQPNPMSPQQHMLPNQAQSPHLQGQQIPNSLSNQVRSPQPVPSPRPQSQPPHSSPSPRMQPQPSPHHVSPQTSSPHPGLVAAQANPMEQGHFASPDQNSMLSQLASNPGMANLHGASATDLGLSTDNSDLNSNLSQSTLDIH
Summary of the method: (§1)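 HiBiT knock-in A549 cells received compound in serial dilution at 37 °C under 5% CO2. Remaining tagged protein was quantified by lytic HiBiT luminescence after 10 min shaking at room temperature, yielding potency and maximal degradation.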

CBP = target: T2, CBP (Homo sapiens, UniProt Q92793); assay: CBP degradation, HiBit technology in A549 CBP HiBit cells (24 h); format: cell-based; conditions: 24 hrs post treatment
T2 construct: host or cells: A549 CBP HiBit cells
T2 sequence (Q92793 whole entry): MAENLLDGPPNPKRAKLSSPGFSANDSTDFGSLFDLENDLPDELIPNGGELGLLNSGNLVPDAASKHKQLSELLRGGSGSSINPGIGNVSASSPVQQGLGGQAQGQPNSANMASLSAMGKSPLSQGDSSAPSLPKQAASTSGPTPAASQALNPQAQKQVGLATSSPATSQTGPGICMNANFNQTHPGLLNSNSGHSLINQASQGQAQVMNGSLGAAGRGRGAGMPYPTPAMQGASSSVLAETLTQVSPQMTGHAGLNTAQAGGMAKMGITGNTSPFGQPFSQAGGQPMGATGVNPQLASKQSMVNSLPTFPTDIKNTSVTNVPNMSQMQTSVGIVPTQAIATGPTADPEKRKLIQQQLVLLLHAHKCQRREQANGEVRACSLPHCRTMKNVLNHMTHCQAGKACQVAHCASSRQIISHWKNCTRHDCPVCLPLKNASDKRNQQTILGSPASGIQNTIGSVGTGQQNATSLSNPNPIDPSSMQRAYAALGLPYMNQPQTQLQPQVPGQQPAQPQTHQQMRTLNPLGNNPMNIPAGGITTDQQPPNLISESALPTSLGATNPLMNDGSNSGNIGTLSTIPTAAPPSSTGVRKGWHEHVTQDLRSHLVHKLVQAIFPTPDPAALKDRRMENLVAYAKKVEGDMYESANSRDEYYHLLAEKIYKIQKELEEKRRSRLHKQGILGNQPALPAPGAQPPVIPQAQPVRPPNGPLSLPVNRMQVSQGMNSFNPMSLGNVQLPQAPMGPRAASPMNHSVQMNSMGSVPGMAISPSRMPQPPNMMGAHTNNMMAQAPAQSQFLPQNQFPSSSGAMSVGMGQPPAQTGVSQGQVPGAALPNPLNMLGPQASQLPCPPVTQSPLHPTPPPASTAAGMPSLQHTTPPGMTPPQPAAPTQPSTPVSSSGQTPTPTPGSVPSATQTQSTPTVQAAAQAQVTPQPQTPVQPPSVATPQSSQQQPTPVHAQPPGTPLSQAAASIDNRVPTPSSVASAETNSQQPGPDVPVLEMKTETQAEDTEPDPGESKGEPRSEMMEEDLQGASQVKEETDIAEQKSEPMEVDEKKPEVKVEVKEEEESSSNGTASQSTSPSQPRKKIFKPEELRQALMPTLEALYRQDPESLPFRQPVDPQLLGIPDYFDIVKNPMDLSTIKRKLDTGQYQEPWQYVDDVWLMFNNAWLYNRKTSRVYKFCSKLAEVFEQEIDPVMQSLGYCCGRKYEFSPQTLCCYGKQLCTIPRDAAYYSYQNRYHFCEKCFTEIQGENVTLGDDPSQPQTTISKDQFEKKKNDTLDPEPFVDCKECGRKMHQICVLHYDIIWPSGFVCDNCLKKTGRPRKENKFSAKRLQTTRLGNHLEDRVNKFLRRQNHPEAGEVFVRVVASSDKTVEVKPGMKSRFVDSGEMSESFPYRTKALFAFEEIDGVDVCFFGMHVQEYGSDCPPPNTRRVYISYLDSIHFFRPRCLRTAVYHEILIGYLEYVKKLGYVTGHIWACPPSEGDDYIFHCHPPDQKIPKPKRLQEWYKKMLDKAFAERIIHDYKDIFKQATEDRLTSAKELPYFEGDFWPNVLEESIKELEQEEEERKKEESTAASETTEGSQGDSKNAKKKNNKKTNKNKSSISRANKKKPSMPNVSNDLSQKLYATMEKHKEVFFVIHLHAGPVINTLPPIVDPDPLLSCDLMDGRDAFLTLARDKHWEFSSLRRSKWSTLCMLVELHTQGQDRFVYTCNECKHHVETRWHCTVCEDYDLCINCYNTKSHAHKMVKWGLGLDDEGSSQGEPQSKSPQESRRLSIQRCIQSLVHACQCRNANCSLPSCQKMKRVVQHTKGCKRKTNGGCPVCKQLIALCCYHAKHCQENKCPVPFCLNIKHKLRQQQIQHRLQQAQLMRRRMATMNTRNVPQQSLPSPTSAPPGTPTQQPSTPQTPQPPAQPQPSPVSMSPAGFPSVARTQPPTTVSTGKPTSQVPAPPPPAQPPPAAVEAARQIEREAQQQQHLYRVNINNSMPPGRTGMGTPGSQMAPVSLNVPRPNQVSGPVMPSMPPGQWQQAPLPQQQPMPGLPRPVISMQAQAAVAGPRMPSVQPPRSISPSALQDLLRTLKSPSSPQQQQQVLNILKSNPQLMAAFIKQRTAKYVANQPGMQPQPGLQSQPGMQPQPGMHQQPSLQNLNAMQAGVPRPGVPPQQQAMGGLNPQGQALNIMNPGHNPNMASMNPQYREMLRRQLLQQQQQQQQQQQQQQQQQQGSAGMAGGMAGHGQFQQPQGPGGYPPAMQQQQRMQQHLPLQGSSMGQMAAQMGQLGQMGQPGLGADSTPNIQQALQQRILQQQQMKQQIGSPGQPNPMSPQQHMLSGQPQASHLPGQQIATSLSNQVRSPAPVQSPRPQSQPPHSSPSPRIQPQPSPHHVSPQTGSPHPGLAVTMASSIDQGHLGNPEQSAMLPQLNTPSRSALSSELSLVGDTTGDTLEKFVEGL
Summary of the method: as §1

Compound | Dmax (p300) [%] | DC50 (p300) [nM] | DC50 (CBP) [nM] | Dmax (CBP) [%]
CCc1cc(N(C)c2ccc(-c3cnc(C(=O)NCC#Cc4cccc(NC5CCC(=O)NC5=O)c4)c(C)c3)nc2)c2cc(C)c(=O)n(C)c2c1 (stereo not shown) [Example B16, N-(3-(3-((2,6-Dioxopiperidin-3-yl)amino)phenyl)prop-2-yn-1-yl)-5-((7-ethyl-1,3-dimethyl-2-oxo-1,2-dihydroquinolin-5-yl)(methyl)amino)-5′-methyl-[2,3′-bipyridine]-6′-carboxamide] | > 80 | 1 to 9.9 | 100 to 999 | 20 to 39
COc1cc(-c2ncc3c(n2)CCCN3c2cc(C3CCOCC3)cc3c2cc(C)c(=O)n3C)cnc1C(=O)NCC#Cc1ccc2occ(C3CCC(=O)NC3=O)c2c1 (stereo not shown) [Example B24, 5-(5-(1,3-dimethyl-2-oxo-7-(tetrahydro-2H-pyran-4-yl)-1,2-dihydroquinolin-5-yl)-5,6,7,8-tetrahydropyrido[3,2-d]pyrimidin-2-yl)-N-(3-(3-(2,6-dioxopiperidin-3-yl)benzofuran-5-yl)prop-2-yn-1-yl)-3-methoxypicolinamide] | > 80 | 1 to 9.9 | > 1000 | < 20
Cc1cc(-c2ncc3c(n2)CCCN3c2nc(N3CC4CCC(C3)O4)cc3c2cc(C)c(=O)n3C)cnc1C(=O)NCC#Cc1ccc2occ(C3CCC(=O)NC3=O)c2c1 (stereo not shown) [Example B26, 5-(5-(7-(8-oxa-3-azabicyclo[3.2.1]octan-3-yl)-1,3-dimethyl-2-oxo-1,2-dihydro-1,6-naphthyridin-5-yl)-5,6,7,8-tetrahydropyrido [3,2-d]pyrimidin-2-yl)-N-(3-(3-(2,6-dioxopiperidin-3-yl)benzofuran-5-yl)prop-2-yn-1-yl)-3-methylpicolinamide] | > 80 | 1 to 9.9 | > 1000 | < 20
Cc1cc2c(N3CCCc4nc(-c5ccc(C(=O)NCC#Cc6cc7c(C8CCC(=O)NC8=O)cccc7o6)nc5)ncc43)nc(N3CCOCC3)cc2n(C)c1=O (stereo not shown) [Example B28, 5-(5-(1,3-dimethyl-7-morpholino-2-oxo-1,2-dihydro-1,6-naphthyridin-5-yl)-5,6,7,8-tetrahydropyrido[3,2-d]pyrimidin-2-yl)-N-(3-(4-(2,6-dioxopiperidin-3-yl)benzofuran-2-yl)prop-2-yn-1-yl)picolinamide] | > 80 | 1 to 9.9 | 100 to 999 | < 20
Cc1cc2c(N3CCCc4nc(-c5ccc(C(=O)NCC#Cc6cc7c([C@H]8CCC(=O)NC8=O)cccc7o6)nc5)ncc43)nc(N3CCOCC3)cc2n(C)c1=O [Example B29, (R)-5-(5-(1,3-dimethyl-7-morpholino-2-oxo-1,2-dihydro-1,6-naphthyridin-5-yl)-5,6,7,8-tetrahydropyrido[3,2-d]pyrimidin-2-yl)-N-(3-(4-(2,6-dioxopiperidin-3-yl)benzofuran-2-yl)prop-2-yn-1-yl)picolinamide] | > 80 | < 1 | 100 to 999 | < 20
Cc1cc2c(N3CCN(C)c4nc(-c5ccc(C(=O)NCC#Cc6cc7c(C8CCC(=O)NC8=O)nccc7o6)nc5)ncc43)cccc2n(C)c1=O (stereo not shown) [Example B32, 5-(5-(1,3-dimethyl-2-oxo-1,2-dihydroquinolin-5-yl)-8-methyl-5,6,7,8-tetrahydropteridin-2-yl)-N-(3-(4-(2,6-dioxopiperidin-3-yl)furo[3,2-c]pyridin-2-yl)prop-2-yn-1-yl)picolinamide] | > 80 | < 1 | 1 to 9.9 | 60 to 79
Cc1cc2c(N3CCCc4nc(-c5ccc(C(=O)NCC#Cc6cc7c([C@@H]8CCC(=O)NC8=O)cccc7o6)nc5)ncc43)cc(C3CCOCC3)cc2n(C)c1=O [Example B39, (S)-5-(5-(1,3-dimethyl-2-oxo-7-(tetrahydro-2H-pyran-4-yl)-1,2-dihydroquinolin-5-yl)-5,6,7,8-tetrahydropyrido[3,2-d]pyrimidin-2-yl)-N-(3-(4-(2,6-dioxopiperidin-3-yl)benzofuran-2-yl)prop-2-yn-1-yl)picolinamide] | > 80 | 1 to 9.9 | > 1000 | < 20
Cc1cc(-c2ncc3c(n2)CCCN3c2cc(C3CCOCC3)cc3c2cc(C)c(=O)n3C)cnc1C(=O)NCC#Cc1ccc2occ(C3CCC(=O)NC3=O)c2c1 (stereo not shown) [Example B42, 5-(5-(1,3-dimethyl-2-oxo-7-(tetrahydro-2H-pyran-4-yl)-1,2-dihydroquinolin-5-yl)-5,6,7,8-tetrahydropyrido[3,2-d]pyrimidin-2-yl)-N-(3-(3-(2,6-dioxopiperidin-3-yl)benzofuran-5-yl)prop-2-yn-1-yl)-3-methylpicolinamide] | 60 to 79 | 1 to 9.9 | > 1000 | < 20
Cc1cc2c(N3CCCc4nc(-c5ccc(C(=O)NCC#Cc6cc7c([C@@H]8CCC(=O)NC8=O)cccc7o6)nc5)ncc43)cc(C3CCOCC3)nc2n(C)c1=O [Example B49, (S)-5-(5-(6,8-dimethyl-7-oxo-2-(tetrahydro-2H-pyran-4-yl)-7,8-dihydro-1,8-naphthyridin-4-yl)-5,6,7,8-tetrahydropyrido[3,2-d]pyrimidin-2-yl)-N-(3-(4-(2,6-dioxopiperidin-3-yl)benzofuran-2-yl)prop-2-yn-1-yl)picolinamide] | > 80 | 1 to 9.9 | > 1000 | < 20

Further lines, results first:

Dmax (p300) [%] | DC50 (p300) [nM] | DC50 (CBP) [nM] | Dmax (CBP) [%] | Compound
> 80 | 1 to 9.9 | > 1000 | < 20 | COc1nc(-c2cnc(C(=O)NCC#Cc3cc4c(C5CCC(=O)NC5=O)cccc4o3)c(C)c2)ncc1Nc1cc(C2CCOCC2)cc2c1cc(C)c(=O)n2C (stereo not shown) [Example B20, 5-(5-((1,3-dimethyl-2-oxo-7-(tetrahydro-2H-pyran-4-yl)-1,2-dihydroquinolin-5-yl)amino)-4-methoxypyrimidin-2-yl)-N-(3-(4-(2,6-dioxopiperidin-3-yl)benzofuran-2-yl)prop-2-yn-1-yl)-3-methylpicolinamide]
> 80 | 1 to 9.9 | 100 to 999 | < 20 | [2H]C1COCCC1([2H])c1cc(N2CCCc3nc(-c4ccc(C(=O)NCC#Cc5cc6c(C7CCC(=O)NC7=O)cccc6o5)nc4)ncc32)c2cc(C)c(=O)n(C)c2c1 (stereo not shown) [Example B23, 5-(5-(1,3-dimethyl-2-oxo-7-(tetrahydro-2H-pyran-4-yl-3,4-d2)-1,2-dihydroquinolin-5-yl)-5,6,7,8-tetrahydropyrido[3,2-d]pyrimidin-2-yl)-N-(3-(4-(2,6-dioxopiperidin-3-yl)benzofuran-2-yl)prop-2-yn-1-yl)picolinamide]
> 80 | 1 to 9.9 | 10 to 99 | 20 to 39 | CCN(CC)c1cc2c(cc(C)c(=O)n2C)c(N2CCCc3nc(-c4ccc(C(=O)NCC#Cc5cc6c(C7CCC(=O)NC7=O)nccc6o5)nc4)ncc32)n1 (stereo not shown) [Example B25, 5-(5-(7-(diethylamino)-1,3-dimethyl-2-oxo-1,2-dihydro-1,6-naphthyridin-5-yl)-5,6,7,8-tetrahydropyrido[3,2-d]pyrimidin-2-yl)-N-(3-(4-(2,6-dioxopiperidin-3-yl)furo[3,2-c]pyridin-2-yl)prop-2-yn-1-yl)picolinamide]
> 80 | 1 to 9.9 | 10 to 99 | 20 to 39 | Cc1cc2c(N3CCCc4nc(-c5ccc(C(=O)NCC#Cc6cc7c(C8CCC(=O)NC8=O)nccc7o6)nc5)ncc43)nc(N3CCC3)cc2n(C)c1=O (stereo not shown) [Example B35, 5-(5-(7-(azetidin-1-yl)-1,3-dimethyl-2-oxo-1,2-dihydro-1,6-naphthyridin-5-yl)-5,6,7,8-tetrahydropyrido[3,2-d]pyrimidin-2-yl)-N-(3-(4-(2,6-dioxopiperidin-3-yl)furo[3,2-c]pyridin-2-yl)prop-2-yn-1-yl)picolinamide]
> 80 | < 1 | > 1000 | < 20 | Cc1cc2c(N3CCCc4nc(-c5ccc(C(=O)NCC#Cc6cc7c([C@H]8CCC(=O)NC8=O)cccc7o6)nc5)ncc43)cc(C3CCOCC3)cc2n(C)c1=O [Example B38, (R)-5-(5-(1,3-dimethyl-2-oxo-7-(tetrahydro-2H-pyran-4-yl)-1,2-dihydroquinolin-5-yl)-5,6,7,8-tetrahydropyrido[3,2-d]pyrimidin-2-yl)-N-(3-(4-(2,6-dioxopiperidin-3-yl)benzofuran-2-yl)prop-2-yn-1-yl)picolinamide]
> 80 | < 1 | > 1000 | < 20 | Cc1cc2c(N3CCCc4nc(-c5ccc(C(=O)NCC#Cc6cc7c(C8CCC(=O)NC8=O)cccc7o6)nc5)ncc43)cc(C3CCOCC3)nc2n(C)c1=O (stereo not shown) [Example B47, 5-(5-(6,8-dimethyl-7-oxo-2-(tetrahydro-2H-pyran-4-yl)-7,8-dihydro-1,8-naphthyridin-4-yl)-5,6,7,8-tetrahydropyrido[3,2-d]pyrimidin-2-yl)-N-(3-(4-(2,6-dioxopiperidin-3-yl)benzofuran-2-yl)prop-2-yn-1-yl)picolinamide]
> 80 | < 1 | 100 to 999 | < 20 | Cc1cc2c(N3CCCc4nc(-c5ccc(C(=O)NCC#Cc6cc7c([C@H]8CCC(=O)NC8=O)cccc7o6)nc5)ncc43)cc(C3CCOCC3)nc2n(C)c1=O [Example B48, (R)-5-(5-(6,8-dimethyl-7-oxo-2-(tetrahydro-2H-pyran-4-yl)-7,8-dihydro-1,8-naphthyridin-4-yl)-5,6,7,8-tetrahydropyrido[3,2-d]pyrimidin-2-yl)-N-(3-(4-(2,6-dioxopiperidin-3-yl)benzofuran-2-yl)prop-2-yn-1-yl)picolinamide]
